This is an account of results in US20260165954A1, “BIO[…]-AND-RESERVOIR SYSTEM FOR THE PULSED DELIVERY OF BIOACTIVE AGENTS” (University of Mississippi, priority 2022, published 2026).

SMILES strings stand for the structures.

Data set [1] is described as follows: Pharmacokinetics of DOI from subcutaneously implanted single-layered CAPP films. Type of data set: in vivo. The note with it: CD-1 mice. The text has this: (§1) FIGS. 12A-12G show in vivo delivery of 5HT2A agonist DOI from single- and multi-layer CAPP films. (FIG. 12A) In vitro cumulative release of DOI from 0.1 mm CAPP films. (FIG. 12B) Scheme of subcutaneous implantation of 0.1 mm DOI-loaded CAPP films and experimental time course. Pharmacokinetics of DOI released from subcutaneously implanted, single-layered CAPP films in (FIG. 12C) plasma (n=4) and (FIG. 12D) brain (n=4). (FIG. 12E) Scheme of subcutaneous implantation of multilayered CAPP films and experimental time course. Pharmacokinetics of DOI released from multilayered CAPP films in (FIG. 12F) plasma (n=4), and (FIG. 12G) brain (n=4).
(§2) To confirm that 5HT2A agonists could be effectively delivered in vivo from an implantable drug delivery system, the encapsulation and release of DOI (2,5-dimethoxy-4-iodoamphetamine) from CAPP films was investigated. DOI release was first observed from single-layered CAPP films. […] The DOI-loaded, single-layered films were next implanted subcutaneously in CD-1 mice (50:50 M:F mice) and monitored the pharmacokinetics and biodistribution of DOI after implantation (FIGS. 12B-12D). […] After this initial optimization, multilayered CAPP films with DOI encapsulated in the ‘release’ layers were generated and implanted them subcutaneously in CD-1 mice (50:50 M:F mice; FIG. 12E). […]

The nature of data set [2]: In vitro release of DOI from single-layered CAPP films. It is filed as physicochemical. To be noted: 0.1 mm single-layered CAPP films; FIG. 12A.
Excerpt: as §1, §2

A short description of data set [3]: Pharmacokinetics of DOI from subcutaneously implanted multilayered CAPP films. Type of data set: in vivo. To be noted: subcutaneous multilayered CAPP films, CD-1 mice.
Excerpt: as §1, §2

Consider `COc1cc(CC(C)N)c(OC)cc1I` (centres unmarked) [DOI, 2,5-dimethoxy-4-iodoamphetamine], for which, in data set [1] (subcutaneous 0.1 mm DOI-loaded single-layered CAPP films, plasma, FIG. 12C), the “time of peak plasma concentration post-implantation” value was 2 h. Besides, in data set [1] (subcutaneous single-layered CAPP films, brain, FIG. 12D), the “brain distribution and clearance” value was “rapidly accumulated in the brain after which it was cleared with similar kinetics to the blood plasma”. The “in vitro release kinetics” value in data set [2] was “closely mimicked that of rhodamine and FITC”. The “absorption and tissue accumulation from the first 'release' layer” value in data set [3] was “rapid absorption of DOI and accumulation in the brain (as well as kidneys and liver)”. Besides, in data set [3] (FIGS. 12F-12G), the “time of second pulse in plasma and organs after the first pulse” value is about 20 h.
